From patent US20050234073A1, “Methods of inhibiting inflammation” (priority 2003, published 2005) come the findings set out here.

Assay [1] relates to moDCs. The experiment in a line: Human moDC presentation of α-galcer to DN32 iNKT cells (IL-2 ELISA). Particulars: moDCs differentiated in presence of inhibitor. The class given is cell-based. The protocol:
FIG. 20G is a line graph showing IL-2 production in human moDCs differentiated in the presence of BMS212122 (◯) or vehicle (●) were incubated with α-galcer. IL-2 concentrations were measured by ELISA of 24 hour culture supernatants. *, p<0.05; **, p<0.01.
APCs were incubated with 100 ng/mL α-galcer (kindly provided by Dr. H. Ploegh) for 3 hours, washed three times in PBS and aliquoted into a 96 well plate at 10^6 cells/mL. DN32 cells were added at 1:1 E:T ratio unless otherwise indicated. CD4^+ cells were isolated from spleens of OT-II transgenic mice using positive selection on CD4 magnetic beads (Miltenyi Biotec) and incubated with APCs and 100 μg/mL ovalbumin. The 24.8 NKT cell line was incubated with APCs in the absence of added antigen at E:T=2:1 unless otherwise indicated. Mouse IL-2 production was assessed by ELISA (OptEIA, BD PharMingen) of 24 or 40 hour culture supernatants. […]
(§1) Bone marrow was extracted from the femurs of C57BL6 or MTPmx1cre mice, washed once in PBS and resuspended in R10 supplemented with culture supernatant from murine GM-CSF transfected cells for a final concentration of 200 U/mL GM-CSF. […] Differentiated cells were harvested by gentle pipetting, washed in PBS, and analyzed by flow cytometry for surface expression of CD11c and I-A^b. […] After 5 days cells were dislodged by gentle pipetting, analyzed by flow cytometry and assayed for antigen presentation. […]

The test system of assay [2] is BMDCs. Nature of the assay: Bone marrow derived dendritic cell presentation to 24.8 and DN32 NKT cells (IL-2 ELISA). The class given is cell-based, mouse. Conditions: BMDCs cultured with inhibitor from day 6 to day 10. The protocol: FIG. 17D is a line graph showing IL-2 production in bone marrow derived dendritic cells incubated for 4 days with BMS212122 (◯) or vehicle (●) were treated with α-galcer for 3 hours, washed and co cultured with DN32. IL-2 concentrations were measured by ELISA of 24 hour culture supernatants. *, p<0.01.
APCs were incubated with 100 ng/mL α-galcer (kindly provided by Dr. H. Ploegh) for 3 hours, washed three times in PBS and aliquoted into a 96 well plate at 10^6 cells/mL. DN32 cells were added at 1:1 E:T ratio unless otherwise indicated. CD4^+ cells were isolated from spleens of OT-II transgenic mice using positive selection on CD4 magnetic beads (Miltenyi Biotec) and incubated with APCs and 100 μg/mL ovalbumin. […] Mouse IL-2 production was assessed by ELISA (OptEIA, BD PharMingen) of 24 or 40 hour culture supernatants. […]
as §1

Consider `Cc1ccc2c(nc(C)n2CCCCC2(C(=O)NCC(F)(F)F)c3ccccc3-c3ccccc32)c1NC(=O)c1ccccc1-c1ccc(C(F)(F)F)cc1` [BMS212122, 9-[4-[2,5-Dimethyl-4-[[[4′-(trifluoromethyl)[1,1′-biphenyl]-2-yl]carbonyl]amino]-1H-benzimidazol-1-yl]butyl]-N-(2,2,2-trifluoroethyl)-9H-fluorene-9-carboxamide], for which the “capacity to present α-galcer to DN32 iNKT cells” value in assay [1] is “reduced capacity”. Besides, in assay [2], the “presentation of α-galcer to DN32 cells” value was “significant effect”.
